Laboratory results taken from US10953010B2 (HAMRA INVEST AB, priority 2016, dated 2021).
Read-outs that look alike come from different tables or passages of the source.

How the values were obtained:
[1] = oral
[2] = clinical; details: human, plasma, po
[3] = test system: patients with acute ischemic stroke treated with intravenous thrombolysis; assay: Cerebral edema on post-treatment CT or MR; type: in vivo, human
Protocol: (§1) Occurrence and severity of hemorrhagic transformation, intracerebral hemorrhage and cerebral edema on post-treatment computer tomography (CT) or magnetic resonance imaging (MR) were among secondary outcomes. Others were neurological outcome at 2 hours, 24 hours and 7 days after initiation of intravenous thrombolysis, functional outcome at 3 months and infarct volume at 7 days. Infarct volume evaluation will be addressed in a following publication.

[4] = test system: patients with acute ischemic stroke treated with intravenous thrombolysis; assay: Hemorrhagic transformations and parenchymatous hemorrhages on post-treatment CT or MR; type: in vivo, human
Protocol: as §1

[5] = test system: patients with acute ischemic stroke treated with intravenous thrombolysis; details: Imatinib treated patients
Protocol: as §1
Clinical assessments, including determination of the NIHSS score were performed before intravenous thrombolysis and start of study treatment (baseline), 2 hours (day 0), day 1 and then daily until day 7. A final NIHSS score was included in the 3 months follow up examination. Assessment of any adverse event was done daily from day 0 to day 7, and finally at 3 months. CT scan was performed at baseline, 24 hours (accepted interval 22-36 hours) and, optionally, at 7 days, MRI at 24 h (accepted interval as for CT) and at 7 days. […] At three months functional status was evaluated using the modified Rankin Scale (mRS) score. […]
When looking at separate time points, linear regression with robust standard errors was used, while adjusting for thrombectomy. […] The association between treatment groups and functional independence was analyzed using odds ratios. […]

[6] = test system: patients with acute ischemic stroke treated with intravenous thrombolysis; assay: Neurological outcome (NIHSS score); type: in vivo, human; details: for mean lowering of the NIHSS score, estimate in brackets / mean lowering (improvement) of the NIHSS score: after adjustment for thrombectomy
Protocol: as §1
Clinical assessments, including determination of the NIHSS score were performed before intravenous thrombolysis and start of study treatment (baseline), 2 hours (day 0), day 1 and then daily until day 7. A final NIHSS score was included in the 3 months follow up examination. Assessment of any adverse event was done daily from day 0 to day 7, and finally at 3 months. CT scan was performed at baseline, 24 hours (accepted interval 22-36 hours) and, optionally, at 7 days, MRI at 24 h (accepted interval as for CT) and at 7 days. Definitions of hemorrhagic transformations, parenchymatous hemorrhages and edema are described in an earlier publication R1 and also listed in Table 1. At three months functional status was evaluated using the modified Rankin Scale (mRS) score. The three months follow up examinations were performed blindly at a different hospital than the one responsible for the acute treatment.
When looking at separate time points, linear regression with robust standard errors was used, while adjusting for thrombectomy. […] The choice of using AR1 correlation was made by comparing the Akaike Information Criterion to a model without AR1 correlation. […] The association between treatment groups and functional independence was analyzed using odds ratios. The statistical software Stata v.13 was used.

[7] = test system: Bcr-Abl tyrosine kinase; details: more potent than Imatinib; cited from earlier work

## Cc1ccc(NC(=O)c2ccc(CN3CCN(C)CC3)cc2)cc1Nc1nccc(-c2cccnc2)n1 [Imatinib]
[1]; 400 mg daily
  mean plasma concentration of Imatinib, Day 0-Day 6: 530 ng/mL
[1]; 600 mg daily
  mean plasma concentration of Imatinib, Day 0-Day 6: 1094 ng/mL
[1]; 800 mg daily
  mean plasma concentration of Imatinib, Day 0-Day 6: 2054 ng/mL
[2]; 400 mg
  concentration at 3 h: 996 ng/mL
[2]; 600 mg
  concentration at 3 h: 1570 ng/mL
[2]; 800 mg
  concentration at 3 h: 1730 ng/mL
[3]; high dose
  number of cerebral edema (CED 1-3): to
  patients with the mildest form of edema, CED 1: to
[3]; initiation of Imatinib within 5 hours after stroke onset, high dose group, of 5 patients
  patients with CED 1 at follow up: 2
[3]; initiation of Imatinib within 5 hours after stroke onset, low dose, of 8 patients
  patients with CED 1 or 2: 4
[3]; initiation of Imatinib within 5 hours after stroke onset, medium dose, of to patients
  patients with CED 1 or 2: 5
[3]; low dose
  number of cerebral edema (CED 1-3): 6
  patients with the mildest form of edema, CED 1: 4
[3]; low dose group
  moderately severe edema (CED-2): Two
[3]; medium dose
  moderately severe edema (CED-2): 1
  number of cerebral edema (CED 1-3): 8
  patients with the mildest form of edema, CED 1: 7
[3]; reperfusion treatment completed within 4.5 hours, high dose group, of 7 patients
  patients with CED 1: 4
[3]; reperfusion treatment completed within 4.5 hours, low dose, of nine
  patients with CED 1 or 2: 4
[3]; reperfusion treatment completed within 4.5 hours, medium dose, of 11
  patients with CED 1 or 2: 6
[4]; high dose
  number of hemorrhagic transformations: 3
  parenchymatous hemorrhages, PH1 type: one
[4]; high dose group
  remote parenchymatous hemorrhages of the milder grade (PHr1): 3
[4]; initiation of Imatinib within 5 hours after stroke onset, high dose group, of 5 treated
  hemorrhages reported: no hemorrhages
[4]; initiation of Imatinib within 5 hours after stroke onset, low dose group, of 8 treated
  hemorrhages reported: 4
[4]; initiation of Imatinib within 5 hours after stroke onset, medium dose, of to treated
  hemorrhages reported: 5
[4]; low dose group
  number of hemorrhagic transformations: 6
  remote parenchymatous hemorrhages of the milder grade (PHr1): one
[4]; medium dose
  number of hemorrhagic transformations: 7
  parenchymatous hemorrhages, PH2: one
[4]; medium dose group
  remote parenchymatous hemorrhages of the milder grade (PHr1): one
[4]; reperfusion treatment completed within 4.5 hours, high dose group, of 7 treated
  hemorrhages reported: no hemorrhages
[4]; reperfusion treatment completed within 4.5 hours, low dose, of 9
  hemorrhages reported: 5
[4]; reperfusion treatment completed within 4.5 hours, medium dose, of 11 treated
  hemorrhages reported: 6
[5]
  severe disability (5 points on mRS) or death (6 points): did not occur
[6]; after adjustment for the effect of thrombectomy
  improvement on the NIHSS per 100 mg Imatinib: 0.6 points
[6]; high dose, 3 months
  lowering of the adjusted mean NIHSS score compared to control, estimate in brackets: −4.81
[6]; high dose, 3 months, p<0.019
  lowering of the adjusted mean NIHSS score compared to control: 5 points
[6]; high dose, 7 days
  lowering of the adjusted mean NIHSS score compared to control, estimate in brackets: −5.68
[6]; high dose, 7 days, p<0.019
  lowering of the adjusted mean NIHSS score compared to control: 6 points
[6]; high dose
  mean lowering of the NIHSS score, estimate in brackets: −4.94
[6]; high dose, p<0.012
  mean lowering (improvement) of the NIHSS score: 5 points
[6]; high dose, day 1, p<0.018
  lowering of the adjusted mean NIHSS score compared to control: 5 points
[6]; low dose
  mean lowering of the NIHSS score, estimate in brackets: −2.30
[6]; low dose, p<0.259
  mean lowering (improvement) of the NIHSS score: 2 points
[6]; medium dose
  mean lowering of the NIHSS score, estimate in brackets: −3.05
[6]; medium dose, p<0.106
  mean lowering (improvement) of the NIHSS score: 3 points
[6]; treatment with Imatinib vs control
  neurological outcome: significantly improved neurological outcome

## Cc1cn(-c2cc(NC(=O)c3ccc(C)c(Nc4nccc(-c5cccnc5)n4)c3)cc(C(F)(F)F)c2)cn1 [Nilotinib]
[7]
  potency relative to Imatinib in inhibiting Bcr-Abl tyrosine kinase activity: 10-30 fold
